Experimental data taken from paper PMC4535450, “Two enzymes with redundant fructose bisphosphatase activity sustain gluconeogenesis and virulence in Mycobacterium tuberculosis” (Nature Communications, 2015).

Molecular target: GLPX (Rv1099c) (Mycobacterium tuberculosis, UniProt P9WN21)
Assay type: biochemical

O=P(O)(O)OC[C@H]1OC(O)(COP(=O)(O)O)[C@@H](O)[C@@H]1O (stereo partly shown) [fructose 1,6-bisphosphate] was tested. Which “coupled spectrophotometric assay (phosphoglucoisomerase / G6P dehydrogenase, NAD)” value did it give?
Its value is “Expression of GLPX in ΔglpXΔgpm2 provided lithium-sensitive FBPase activity”.
